Measured values reported in PMC2267209, “Transepithelial Transport and Enzymatic Detoxification of Gluten in Gluten-Sensitive Rhesus Macaques” (PLoS ONE, 2008).

Tests used:
[1] = tested on: gluten-sensitive rhesus macaque FH45; assay: Indirect ELISA for plasma AGA and anti-TG2 antibodies during gluten challenge with EP-B2; format: in vivo, rhesus macaques (Macaca mulatta)
Description: Gluten-sensitive FH45 and control FI96 were switched from a gluten-containing to a gluten-free diet at week 0, re-challenged with the gluten-containing diet from week 10.4 to 11.4, and then returned to a gluten-free diet for the remainder of the experiment. To test whether orally administered EP-B2 can prevent clinical symptoms resulting from gluten challenge, animals were fed a gluten-free diet with the addition of a daily slice of unbleached wheat bread (∼4 g gluten) for 8 weeks (weeks 22.9 to 30.9), during the first 4 of which (weeks 22.9 to 26.9) gluten-sensitive macaque FH45 received a daily dose of 2 g recombinant proEP-B2 dissolved in an electrolyte drink immediately prior to bread consumption. Recombinant proEP-B2 was expressed and purified as previously described, [31]. Peripheral blood samples (1 ml) were collected every 1–2 weeks from a femoral vein, and plasma was harvested and stored at −80 °C until analyzed for AGA and anti-TG2 antibodies. Clinical health was monitored as previously described. Briefly, daily clinical scores were averaged over weekly intervals to obtain each weekly mean±standard deviation. Criteria for clinical scoring (1–6 scale) were scaled relative to “clinically normal”, age-matched controls, i.e. score of 1. Score 2 corresponded to beginning of diarrhea, i.e. pasty stools. Score 3 corresponded to semi-liquid stools and decreased activity. Score 4 corresponded to liquid stools, decreased activity, moderate dehydration and “balloon” stomach. Score 5 corresponded to liquid stools, depression, severe dehydration and balloon stomach. Score 6 corresponded to a moribund animal where prompt euthanasia is recommended.
ELISA assays were performed as previously described.

[2] = tested on: gluten-sensitive rhesus macaque FH45; assay: Daily gluten challenge with or without oral EP-B2, clinical score; format: in vivo, rhesus macaques (Macaca mulatta)
Description: Gluten-sensitive FH45 and control FI96 were switched from a gluten-containing to a gluten-free diet at week 0, re-challenged with the gluten-containing diet from week 10.4 to 11.4, and then returned to a gluten-free diet for the remainder of the experiment. To test whether orally administered EP-B2 can prevent clinical symptoms resulting from gluten challenge, animals were fed a gluten-free diet with the addition of a daily slice of unbleached wheat bread (∼4 g gluten) for 8 weeks (weeks 22.9 to 30.9), during the first 4 of which (weeks 22.9 to 26.9) gluten-sensitive macaque FH45 received a daily dose of 2 g recombinant proEP-B2 dissolved in an electrolyte drink immediately prior to bread consumption. Recombinant proEP-B2 was expressed and purified as previously described, [31]. Peripheral blood samples (1 ml) were collected every 1–2 weeks from a femoral vein, and plasma was harvested and stored at −80 °C until analyzed for AGA and anti-TG2 antibodies. Clinical health was monitored as previously described. Briefly, daily clinical scores were averaged over weekly intervals to obtain each weekly mean±standard deviation. Criteria for clinical scoring (1–6 scale) were scaled relative to “clinically normal”, age-matched controls, i.e. score of 1. Score 2 corresponded to beginning of diarrhea, i.e. pasty stools. Score 3 corresponded to semi-liquid stools and decreased activity. […]

[3] = tested on: celiac patient-derived T cells; settings: ref [2], [19], cited from earlier work
[4] = rhesus monkey, in vivo
Description: A 0.5 ml sample of EDTA-blood was collected from an ear vein at 0, 30, 60, 120, and 180 min following the 33-mer inoculation. […] Animals were fasted at least 2 h prior to peptide inoculations. Blood collections and 33-mer inoculations were performed with sedated and anesthetized animals.
Following peptide dosing and peripheral plasma collection, described above, plasma proteins were precipitated by addition of acetonitrile. Plasma was mixed with an equal volume of cold acetonitrile+0.1% formic acid, vortexed, incubated for 2 h at 4°C, and centrifuged at 14,000•g for 10 min at 4°C. […] When quantitation was performed, unlabeled 33-mer was spiked into the plasma samples prior to acetonitrile precipitation as an internal control (5 pmol/100 µl injection) and injections were performed at least in triplicate.
Mass spectrometry analysis was performed as previously described [20] with the following modifications. […] For ^D933-mer, the transitions monitored were m/z 981.0^4+→263.1^+ (30V cone voltage, 27eV collision energy.) for the quantitation assay and m/z 1307.7^3+→263.1^+ (40V cone voltage, 50eV collision energy) as a confirmatory transition. […] Levels of ^D933-mer in each sample were determined by comparison of the area under the ^D933-mer transition peak to the area under the internal standard transition peak. […]

[5] = daily 2 g proEP-B2 plus wheat bread

## EP-B2: gluten-specific barley cysteine endoprotease, dosed orally as recombinant proenzyme; oral glutenase drug candidate for celiac disease
[1]; EP-B2 treatment with gluten challenge
  Anti-TG2 IgA: unable to detect
[1]; [5]
  AGA levels during wheat bread/EP-B2 administration relative to gluten-containing diet (week 0): ~3 fold
  Anti-TG2 IgG levels over the course of EP-B2 treatment: elevated
[2]; daily 2 g recombinant proEP-B2 oral immediately before a daily slice of wheat bread (∼4 g gluten), first 4 weeks (weeks 22.9 to 26.9), clinical score 1–6 scale
  Clinical health during gluten challenge with EP-B2: remained clinically healthy
[2]; wheat bread gluten challenge continued without EP-B2 (weeks 26.9 to 30.9)
  Time to signs of clinical illness after EP-B2 dosing was concluded: ~1 week

## LQLQPFPQPQLPYPQPQLPYPQPQLPYPQPQPF [33-mer, immunotoxic 33-mer gluten peptide derived from gastrointestinal proteolysis of α2-gliadin; unlabeled form used as internal standard]
[3]; T cells in culture
  Concentration sufficient to stimulate proliferation of celiac patient-derived T cells: low nanomolar concentrations
[3]; all T cell lines tested so far
  Proliferation of celiac patient-derived T cell lines: activates proliferation in all celiac patient-derived T cell lines tested so far

## LQLQPFPQPQLPYPQPQLPYPQPQLPYPQPQPF [^D933-mer]
[4]
  Detection of peptide in peripheral plasma at 60 minutes: detected
[4]; SD
  Concentration in peripheral plasma at 60 minutes: 7.0 ± 0.4 nM
